Tests used:
[1] = target: T1, Full length wild-type cereblon CRBN (Homo sapiens, UniProt Q96SW2); assay: Fluorescence polarization (FP) assay indicating cereblon binding; details: bound stated; read-out: IC50 value
T1 construct: Full length wild-type cereblon CRBN (80.0 nM, 10 μL) was incubated in assay buffer
Procedure, shortened: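 Full-length wild-type CRBN at 80.0 nM was preincubated 30 min at room temperature with compound (12-point curve, 300–0.937 or 3000–9.3 nM) in 20 mM HEPES pH 8.0, 150 NaCl, 0.5 mM TCEP, 0.05% Tween 20. Cy5-type thalidomide-based probe added at 5 nM final; FP read after 12 h (ex 590/em 675 nm), normalized to DMSO, IC50 fitted.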

[2] = target: T2, IKZF1 (Homo sapiens, UniProt Q13422+Q96SW2); assay: Selectivity western blot assay in MM1 S cells, IKZF1; format: cell-based; design: key: A represents no degradation observed at 30 μM; B represents trace degradation at 30 μM (below 20%); C represents weak degradation at 30 μM (below 50%); D represents degradation at 30 μM (>90%); E represents degradation at 3 μM (>90%); F represents degradation at 0.3 μM (>90%); details: MM1 S cells, 0.3, 3 and 30 μM, 6 hours
T2 construct: endogenous in cells; host or cells: MM1 S (ATCC CRL-2974)
T2 sequence (Q13422 whole entry): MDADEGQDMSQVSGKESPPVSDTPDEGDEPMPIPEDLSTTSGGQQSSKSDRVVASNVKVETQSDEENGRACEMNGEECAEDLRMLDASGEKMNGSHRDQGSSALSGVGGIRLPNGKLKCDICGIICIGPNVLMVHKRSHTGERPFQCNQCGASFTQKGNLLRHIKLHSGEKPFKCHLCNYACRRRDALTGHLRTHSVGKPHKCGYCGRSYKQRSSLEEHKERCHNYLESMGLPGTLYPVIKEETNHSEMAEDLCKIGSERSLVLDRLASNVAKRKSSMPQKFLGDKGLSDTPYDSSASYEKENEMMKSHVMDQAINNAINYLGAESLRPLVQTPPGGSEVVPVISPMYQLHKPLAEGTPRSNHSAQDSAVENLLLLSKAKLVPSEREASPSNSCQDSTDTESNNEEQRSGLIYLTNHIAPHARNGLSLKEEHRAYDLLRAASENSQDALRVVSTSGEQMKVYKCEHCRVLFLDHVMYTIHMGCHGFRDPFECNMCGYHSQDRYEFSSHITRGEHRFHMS
T2 sequence (Q96SW2 whole entry): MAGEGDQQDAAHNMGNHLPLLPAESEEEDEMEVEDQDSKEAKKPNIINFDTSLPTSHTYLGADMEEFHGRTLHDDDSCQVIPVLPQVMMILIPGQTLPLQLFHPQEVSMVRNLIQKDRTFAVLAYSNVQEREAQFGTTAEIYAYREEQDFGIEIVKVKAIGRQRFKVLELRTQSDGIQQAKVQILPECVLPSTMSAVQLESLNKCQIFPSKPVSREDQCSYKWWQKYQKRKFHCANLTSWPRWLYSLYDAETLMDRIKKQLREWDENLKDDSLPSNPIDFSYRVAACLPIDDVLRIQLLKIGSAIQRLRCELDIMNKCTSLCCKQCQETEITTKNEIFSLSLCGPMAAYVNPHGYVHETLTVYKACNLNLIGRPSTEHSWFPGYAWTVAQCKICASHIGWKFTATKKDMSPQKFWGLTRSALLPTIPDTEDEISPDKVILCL
T2 sequence (Q16531 whole entry partner): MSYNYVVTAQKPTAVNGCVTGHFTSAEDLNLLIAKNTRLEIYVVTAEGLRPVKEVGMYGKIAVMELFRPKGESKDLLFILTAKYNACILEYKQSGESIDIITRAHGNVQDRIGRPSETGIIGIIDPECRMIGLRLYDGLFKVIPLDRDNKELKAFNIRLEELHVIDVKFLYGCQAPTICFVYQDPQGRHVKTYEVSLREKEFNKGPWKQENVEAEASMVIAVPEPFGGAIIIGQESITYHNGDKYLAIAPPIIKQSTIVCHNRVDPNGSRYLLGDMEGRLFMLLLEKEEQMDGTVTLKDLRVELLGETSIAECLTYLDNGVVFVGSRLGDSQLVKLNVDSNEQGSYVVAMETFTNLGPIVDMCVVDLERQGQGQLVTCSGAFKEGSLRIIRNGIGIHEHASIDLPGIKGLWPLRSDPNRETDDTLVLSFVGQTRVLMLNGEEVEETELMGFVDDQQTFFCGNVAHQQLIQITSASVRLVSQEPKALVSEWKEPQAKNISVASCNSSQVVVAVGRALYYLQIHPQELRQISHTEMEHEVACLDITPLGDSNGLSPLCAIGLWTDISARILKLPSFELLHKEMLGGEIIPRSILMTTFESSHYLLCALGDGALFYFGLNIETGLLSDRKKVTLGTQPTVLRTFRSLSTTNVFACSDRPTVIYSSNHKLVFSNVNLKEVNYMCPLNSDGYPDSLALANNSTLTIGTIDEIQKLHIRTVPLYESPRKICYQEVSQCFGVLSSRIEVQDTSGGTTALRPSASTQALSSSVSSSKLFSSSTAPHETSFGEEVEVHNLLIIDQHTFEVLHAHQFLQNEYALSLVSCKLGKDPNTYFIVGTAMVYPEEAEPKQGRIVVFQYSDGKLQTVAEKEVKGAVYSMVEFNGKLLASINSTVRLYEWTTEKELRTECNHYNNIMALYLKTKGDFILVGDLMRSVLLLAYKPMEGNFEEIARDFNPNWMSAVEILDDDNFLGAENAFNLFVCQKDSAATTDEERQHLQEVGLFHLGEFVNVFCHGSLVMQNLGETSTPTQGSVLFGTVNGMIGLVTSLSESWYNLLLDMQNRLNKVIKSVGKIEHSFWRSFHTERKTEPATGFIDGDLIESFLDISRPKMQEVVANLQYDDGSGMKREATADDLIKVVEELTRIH
Protocol: (§1) MM1 S cells were purchased from ATCC (cat. Number CRL-2974), sub-cultured in 90% RPMI 1640 with 10% FBS, supplemented with 1×P/S and incubated at 37° C., 5% CO2. Compounds were stored as 10 mM DMSO stock. For the assay, MM1 S cells (3 million cells/well) were plated in 6-well plates and incubated over night. Cells were treated with respective compounds using a serial dilution: 0.3 μM, 3 μM and 30 μM as well as a vehicle only (DMSO) control for 6 hours. Media with suspension cells was subsequently transferred to 15 mL conical tubes, wells rinsed twice with ice-cold PBS and merged with cell suspension in respective 15 mL conical tube. Cells were spinned down, supernatant aspirated, pellets resuspended in ice-cold PBS and transferred to microtubes. Cells were spinned down, supernatant aspirated and pellets resuspended in 120 μL RIPA lysis buffer supplemented with protease and phosphatase inhibitors. Cell lysates were incubated on ice for 20 minutes followed by centrifugation at >20,000×g for 5 min. Supernatants were transferred to fresh microtubes and stored at −80° C. Total protein concentration was determined using a BCA assay with a BSA standard curve and concentration of all samples was adjusted to 1 mg/mL. 25 μL 4×LDS sample buffer supplemented with 100 mM DTT was added to 75 μL sample. Samples were centrifuged (8,000×g, 1 min) and incubated at 95° C. for 5 min followed by another centrifugation step (8,000×g, 1 min). 20 μL of each sample was loaded on a 4-12% gel alongside a protein molecular weight marker. Gels were run in the presence of MOPS buffer at 80 Volts for 30 min, followed by 120 Volts for 1.5 h and proteins subsequently transferred onto nitrocellulose membranes at 20 Volts for 7 min using an iBlot2 Gel Transfer Device. Membranes were then cut horizontally into two pieces, covering 80-50 kDa and 50-25 kDa. Blocking the membranes was performed by gently shaking in 5% (w/v) skim milk in TSB-T for 1 hr at room temperature. All primary antibodies were used at a 1/1000 in 5% (w/v) BSA dissolved in TBST and incubated with membranes over night at 4° C. After three washes with 1×TBST for 5 min, HRP-coupled secondary antibodies diluted in 5% (w/v) BSA/TBST (Goat Anti-Rb IgG, dil. 1/10,000; Goat Anti-Mouse IgG, dil. 1/5000) were added for 1 hr at room temperature. After three washes with 1×TBST (5 minutes each), membranes were incubated with ECL reagent for 1 min at room temperature. Chemiluminescence signals were then detected using a LAS-4000 system with default settings and signals quantified using Image Studio Lite software (version 5.2). Membrane parts previously incubated with antibody against CK1 alpha were stripped off antibodies by incubating with stripping buffer for 30 minutes followed by three washed with TBST (5 min each), blocking with 5% (w/v) skim milk for 1 hr, and incubation with primary antibody against uGAPDH overnight at 4° C. Subsequent washes, incubation with secondary antibody and signal acquisition were performed as described above.

[3] = target: T3, IKZF3 (Homo sapiens, UniProt Q96SW2+Q9UKT9); assay: Selectivity western blot assay in MM1 S cells, IKZF3; format: cell-based; details: MM1 S cells, 0.3, 3 and 30 μM, 6 hours
T3 construct: endogenous in cells; host or cells: MM1 S (ATCC CRL-2974)
T3 sequence (Q9UKT9 whole entry): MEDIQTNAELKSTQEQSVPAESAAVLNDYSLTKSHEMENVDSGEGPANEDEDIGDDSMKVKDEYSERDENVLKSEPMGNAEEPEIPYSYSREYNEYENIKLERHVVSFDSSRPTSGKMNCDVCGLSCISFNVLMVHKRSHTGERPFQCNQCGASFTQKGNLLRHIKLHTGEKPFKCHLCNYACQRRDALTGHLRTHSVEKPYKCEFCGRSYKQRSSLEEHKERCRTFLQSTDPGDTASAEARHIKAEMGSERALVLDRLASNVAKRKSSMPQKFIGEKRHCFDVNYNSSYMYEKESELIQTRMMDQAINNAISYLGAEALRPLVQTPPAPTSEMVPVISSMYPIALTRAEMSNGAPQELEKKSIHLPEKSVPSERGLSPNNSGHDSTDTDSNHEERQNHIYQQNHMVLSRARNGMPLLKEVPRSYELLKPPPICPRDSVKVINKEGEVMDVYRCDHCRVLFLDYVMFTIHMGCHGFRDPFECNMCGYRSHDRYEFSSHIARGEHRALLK
T3 sequence (Q96SW2 whole entry): as the sequence (Q96SW2 whole entry) above
T3 sequence (Q16531 whole entry partner): as the sequence (Q16531 whole entry partner) above
Protocol: as §1

[4] = target: T4, CK1alpha (Homo sapiens, UniProt P48729+Q96SW2); assay: Selectivity western blot assay in MM1 S cells, CK1alpha; format: cell-based; design: key: A represents no degradation observed at 30 μM; B represents trace degradation at 30 μM (below 20%); C represents weak degradation at 30 μM (below 50%); D represents degradation at 30 μM (>90%); E represents degradation at 3 μM (>90%); F represents degradation at 0.3 μM (>90%); details: MM1 S cells, 0.3, 3 and 30 μM, 6 hours
T4 construct: endogenous in cells; host or cells: MM1 S (ATCC CRL-2974)
T4 sequence (P48729 whole entry): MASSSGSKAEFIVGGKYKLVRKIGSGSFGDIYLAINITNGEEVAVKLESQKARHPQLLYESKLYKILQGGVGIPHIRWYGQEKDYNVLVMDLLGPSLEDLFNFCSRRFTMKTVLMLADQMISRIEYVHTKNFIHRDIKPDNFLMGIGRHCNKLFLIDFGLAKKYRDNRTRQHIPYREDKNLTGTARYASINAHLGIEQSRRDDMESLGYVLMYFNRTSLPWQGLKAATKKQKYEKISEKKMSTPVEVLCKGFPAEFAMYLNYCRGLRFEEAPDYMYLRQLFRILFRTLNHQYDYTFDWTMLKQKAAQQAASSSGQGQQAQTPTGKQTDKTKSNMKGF
T4 sequence (Q96SW2 whole entry): as the sequence (Q96SW2 whole entry) above
T4 sequence (Q16531 whole entry partner): as the sequence (Q16531 whole entry partner) above
Protocol: as §1

[5] = target: GSPT1 (Homo sapiens, UniProt P15170+Q96SW2); assay: Selectivity western blot assay in MM1 S cells, GSPT1; format: cell-based; design: endogenous in cells; host or cells: MM1 S (ATCC CRL-2974); details: MM1 S cells, 0.3, 3 and 30 μM, 6 hours
Chain of GSPT1 (P15170 whole entry): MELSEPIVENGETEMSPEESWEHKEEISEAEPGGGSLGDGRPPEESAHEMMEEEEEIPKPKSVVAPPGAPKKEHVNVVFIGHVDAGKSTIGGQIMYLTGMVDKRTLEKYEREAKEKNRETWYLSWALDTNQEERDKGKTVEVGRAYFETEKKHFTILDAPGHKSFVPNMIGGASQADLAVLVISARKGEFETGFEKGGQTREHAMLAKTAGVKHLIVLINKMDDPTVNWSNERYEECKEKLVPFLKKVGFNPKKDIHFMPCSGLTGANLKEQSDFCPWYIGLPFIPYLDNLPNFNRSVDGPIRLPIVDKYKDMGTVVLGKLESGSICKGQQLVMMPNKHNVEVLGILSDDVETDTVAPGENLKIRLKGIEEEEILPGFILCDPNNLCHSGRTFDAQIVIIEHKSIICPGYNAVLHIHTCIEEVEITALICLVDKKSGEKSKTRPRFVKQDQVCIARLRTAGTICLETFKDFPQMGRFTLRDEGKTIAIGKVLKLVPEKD
Chain of GSPT1 (Q96SW2 whole entry): as the sequence (Q96SW2 whole entry) above
Chain of GSPT1 (Q16531 whole entry partner): as the sequence (Q16531 whole entry partner) above
Protocol: as §1

T1 sequence (Q96SW2 whole entry): as the sequence (Q96SW2 whole entry) above

SMILES | IC50 [1] [nM] | IKZF1 degradation [2] | IKZF3 degradation [3] | CK1alpha degradation [4] | GSPT1 degradation [5]
Cc1ccc(NC(=O)NCc2ccc3c(c2)C(=O)N(C2CCC(=O)NC2=O)C3)cc1Cl (centres unmarked) [Compound 8] | < 1100 | A | B (B represents trace degradation at 30 μM (below 20%)) | A | F (F represents degradation at 0.3 μM (>90%))
Cc1ccc(NC(=O)OCc2ccc3c(c2)C(=O)N(C2CCC(=O)NC2=O)C3)cc1Cl (centres unmarked) [Compound 210] | – | A | B (B represents trace degradation at 30 μM (below 20%)) | B (B represents trace degradation at 30 μM (below 20%)) | D (D represents degradation at 30 μM (>90%))
Cc1c(Cl)cc(NC(=O)NCc2ccc3c(c2)C(=O)N(C2CCC(=O)NC2=O)C3)cc1CN1C2CCC1COC2 (centres unmarked) [Compound 138] | < 1100 | C (C represents weak degradation at 30 μM (below 50%)) | B (B represents trace degradation at 30 μM (below 20%)) | A | F (F represents degradation at 0.3 μM (>90%))
